# Measured values published in patent US20070238745A1, “PI3K-Akt Pathway Inhibitors” (UNIVERSITY OF SOUTH FLORIDA, priority 2006, published 2007).
# Entries after “also recorded” stand apart in the source; their conditions may differ. Like-named read-outs stand apart in the source and are kept apart here.
# How the values were obtained:
# LNCaP cells [1] = test: PARP cleavage by Western blotting in LNCaP cells; format: cell-based, human
# Experimental: Cell lysates were analysed for PARP cleavage by Western blotting. […] Lysates were analysed by Western blotting. […] Lysates were analysed by Western blotting. In FIG. 1D LNCaP cells were transfected with pcDNA3 (vector) or pcDNA3 encoding dn-AKT plasmid. […] Lysates were analysed by Western blotting.
# (§1) Prostate cancer cell lines used in our studies include LNCaP, LNCaP-Rf, PC3 and PC3-MM2. […] LNCaP cells and PC3 cells were derived from a lymph node metastasis and a bone metastasis, respectively, of human prostate tumors. All these cell lines express constitutively active AKT. To distinguish the effects of our therapeutics between normal and tumor cells, we also used an immortalized but non-tumorigenic prostate epithelial cell line, RWPE, in our study. All experiments were performed on growing cells in medium containing 10% fetal calf serum.
# Apoptosis was monitored by cleavage of the caspase-3 substrate poly (ADP-ribose) polymerase (PARP).
# PC3 cells [2] = test: Cell growth by trypan-blue exclusion, PC3; format: cell-based, human; settings: 72 hr
# Experimental: (§2) FIG. 3 is a series of graphs illustrating the effects of drugs on growth potential of prostate cancer cells. Cells were treated with various inhibitors for 72 hrs and cell growth was enumerated by trypan-blue exclusion.
# as §1
# (§3) Further, effects of the combination treatment in altering colony formation potential were examined. For this purpose, cells were exposed to drugs for 24 or 46 hrs and trypsinized. Ten thousand viable cells were replated and allowed to grow colonies for 2 weeks.
# PC3-MM2 cells = test: Cell growth by trypan-blue exclusion, PC3-MM2; format: cell-based, human; settings: 72 hr
# Experimental: as §2, §1, §3
# PC3 cells [3] = test: Apoptosis of PC3 cells (DNA fragmentation Cell Death ELISA, Tunel); format: cell-based, human; settings: 20 mM LY, 20 mM API-2, 50 mM roscovitine or combination for 14 hr (ELISA); 40 hrs (Tunel)
# Experimental: Tunel positive cells are shown. […] Cells were incubated with Hoechest stain for 5 mins and examined using a fluorescent microscope. […] Amounts of cytosolic histone associated DNA fragments were measured.
# as §1
# Bim [4] = test: Amounts of Bim in LNCaP and PC3 cells; format: cell-based, human
# Source text: How AKT inhibitors facilitate the mitochondria-dependent apoptosis of prostate cancer cells remains to be determined. Potential mechanisms include accumulation of the BH3-only protein Bim and dephosphorylation and activation of Bad. The FOXO factors activate the Bim promoter, and AKT phosphorylates Bim, which may prevent its degradation.
# LNCaP, LAPC4 and LAPC9 = settings: most prostate cancer cell lines, including LNCaP; cited from earlier work
# [5] = cited from earlier work
# LNCaP cells [6] = settings: cited from earlier work
# [7] = test system: malignant tumors refractory to conventional treatments; settings: patients with malignant tumors refractory to conventional treatments; cited from earlier work
# [8] = test system: lung, breast, and B cell cancer; settings: cited from earlier work
# 151 kinases = settings: cited from earlier work
# Bim [9] = settings: PC3 cells, 8 hrs; roscovitine in either the presence or absence of API-2
# Experimental: (§4) Lysates were analysed by Western blotting. […] Lysates were analysed by Western blotting.
# XIAP [10] = settings: PC3 cells, longer exposure (20 hrs), single agent
# Experimental: as §4
# [11] = cited from earlier work; remark: listed apart in the source
# [12] = orally, 3 times a day at 200 mg/kg or 2 times a day at 500 mg/kg; cited from earlier work
# LNCaP, LNCaP-Rf = settings: LNCaP-Rf prostate cancer cells, roscovitine alone; cited from earlier work
# PC3 and DU145 cells = settings: cited from earlier work
# [13] = test system: melanoma cells expressing wild-type p53 (A375, 888-Mel, 624-Mel); settings: melanoma cells A375, 888-Mel, 624-Mel (wild-type p53); cited from earlier work
# [14] = test system: HTLV-I transformed T cell lines (MT-2); settings: cited from earlier work
# XIAP [15] = settings: LNCaP, LNCaP-Rf, and PC3 cells; cited from earlier work
# p53 = settings: LNCaP and LNCaP-Rf cells; cited from earlier work
# Bcl-2 = test: Western blotting: Bcl-2 expression in PC3 cells; settings: longer exposure (20 hrs)
# Experimental: (§5) Lysates were analysed by Western blotting. […] Cells were exposed to drugs for 20 hrs. Lysates were analysed by Western blotting.
# Cdk7/Cdk9 = test: Western blotting: phosphorylation of RNA-Pol II in PC3 cells; settings: short-term exposure (8 hrs)
# Experimental: as §5
smiles,measurement,setting,value
"O=c1cc(N2CCOCC2)oc2c(-c3ccccc3)cccc12 [LY, 2-(4-morpholinyl)-8-phenyl-4H-1-benzopyran-4-one]",PARP cleavage,"LNCaP cells [1]; LNCaP cells, 8 hours, cleavage of caspase-3 substrate PARP, 10 uM LY294002 or 0.5 uM Wortmannin",did not induce any PARP cleavage
same,cell growth,PC3 cells [2],inhibit cell growth
same,cell growth,PC3-MM2 cells,inhibit cell growth
same,apoptosis of PC3 cells,PC3 cells [3],not
same,amounts of Bim,Bim [4],increase amounts of Bim
same,apoptotic response,"LNCaP, LAPC4 and LAPC9",induce a potent apoptotic response
same,in vivo half-life,[5],short in vivo half-life
Cc1ccc(C(=O)Cn2c3c(sc2=N)CCCC3)cc1 [pifithrin-α],rescue from roscovitine-induced apoptosis,LNCaP cells [6],rescues LNCaP cells
COC[C@H]1OC(=O)c2coc3c2[C@@]1(C)C1=C(C3=O)[C@@H]2CCC(=O)[C@@]2(C)C[C@H]1OC(C)=O [wortmannin],in vivo half-life,[5],short in vivo half-life
"CC[C@H](CO)Nc1nc(NCc2ccccc2)c2ncn(C(C)C)c2n1 [R-roscovitine, 2-(1-R-hydroxymethylpropylamino)-6-benzylamino-9-iso-propylpurine]","toxicity, Phase I trial",[7],toxicity at higher doses
same,"tumor responses, Phase I trial",[7],no objective tumor responses
same,"responses, Phase II clinical trials",[8],partial responses lasting more than four months
same,"toxicity, Phase II clinical trials",[8],limited toxicity
same,binding among 151 kinases examined,151 kinases,bound only its known CDK targets and pyridoxal kinase
"CCC(CO)Nc1nc(NCc2ccccc2)c2ncn(C(C)C)c2n1 (stereo not shown) [roscovitine, 2-(1-ethyl-2-hydroxyethylamino)-6-benzylamino-9-isopropylpurine]",PARP cleavage,LNCaP cells [1],did not induce any PARP cleavage
same,PARP cleavage in the presence as compared with the absence of dominant-negative AKT,LNCaP cells [1],enhanced PARP cleavage
same,exposure time at which robust PARP cleavage was evident,LNCaP cells [1],more than 9 hr
same,cell growth,PC3 cells [2],inhibit cell growth
same,cell growth,PC3-MM2 cells,inhibit cell growth
same,apoptosis of PC3 cells,PC3 cells [3],not
same,Bim abundance,Bim [9],did not alter Bim abundance
same,XIAP expression / abundance,XIAP [10],reduced expression of XIAP
same,tissue distribution / tumor uptake,[11]; in vivo,highest tumor uptake
same,clearance from plasma,"[11]; via oxidative metabolism of the side chain hydroxyl group, excreted in urine",clears slowly
same,toxicity or adverse effects,[12],without any toxicity or adverse effects
same,apoptosis,"LNCaP, LNCaP-Rf",can induce apoptosis; also recorded: readily induces apoptosis
same,apoptosis when supplied with roscovitine and wild-type p53,PC3 and DU145 cells; DU145 and PC3 cells,efficiently apoptose
same,apoptosis,PC3 and DU145 cells,relatively resistant and not
same,apoptosis,[13],apoptose; also recorded: readily induces apoptosis
same,apoptosis,[14],readily induces apoptosis
same,XIAP expression,XIAP [15],reduces XIAP expression
same,p53 abundance,p53,increases p53 abundance
same,Bcl-2 expression,Bcl-2,not
same,activity of Cdk7/Cdk9 as measured by phosphorylation of RNA-Pol II,Cdk7/Cdk9,reduced activity
